According to ChEMBL document CHEMBL4477261, “Design, synthesis and evaluation of the multidrug resistance-reversing activity of pyridine acid esters of podophyllotoxin in human leukemia cells” (Bioorg Med Chem Lett, 2016):
Counter-ions that a name gives are not always drawn. Active and inactive are the calls of the source. The calls are words filed in the database; no cut-off is given here.

Assays:
K562/Adr [1] = assay: Antiproliferative activity against human K562/ADR cells after 72 hrs by CCK8 assay; type: functional, cell-based
K562 [2] = assay: Resistance factor, ratio of IC50 for human K562/ADR cells to IC50 for human K562 cells; type: functional
K562 [3] = assay: Antiproliferative activity against human K562 cells after 72 hrs by CCK8 assay; type: functional, cell-based; settings: K562, 72 h
[4] = biological target: T1, Mitogen-activated protein kinase; ERK1/ERK2 (Homo sapiens) (UniProt P27361+P28482); assay: Activation of ERK1/2 signalling in human K562/ADR cells assessed as suppression of CyclinB1 protein expression at 0.05 uM after 48 hrs by Western blot analysis relative to control; type: cell-based
T1 sequence (P27361 whole entry, looked up): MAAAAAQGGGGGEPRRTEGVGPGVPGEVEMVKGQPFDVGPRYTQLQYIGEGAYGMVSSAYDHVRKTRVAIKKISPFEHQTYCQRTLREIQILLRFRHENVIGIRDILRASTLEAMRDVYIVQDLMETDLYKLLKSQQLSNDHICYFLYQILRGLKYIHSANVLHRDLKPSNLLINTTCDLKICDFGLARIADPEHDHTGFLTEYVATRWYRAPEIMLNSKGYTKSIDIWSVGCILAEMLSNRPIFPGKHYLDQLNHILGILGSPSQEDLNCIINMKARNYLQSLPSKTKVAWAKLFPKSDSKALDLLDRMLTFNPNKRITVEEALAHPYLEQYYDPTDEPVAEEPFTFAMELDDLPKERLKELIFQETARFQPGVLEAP
T1 sequence (P28482 whole entry, looked up): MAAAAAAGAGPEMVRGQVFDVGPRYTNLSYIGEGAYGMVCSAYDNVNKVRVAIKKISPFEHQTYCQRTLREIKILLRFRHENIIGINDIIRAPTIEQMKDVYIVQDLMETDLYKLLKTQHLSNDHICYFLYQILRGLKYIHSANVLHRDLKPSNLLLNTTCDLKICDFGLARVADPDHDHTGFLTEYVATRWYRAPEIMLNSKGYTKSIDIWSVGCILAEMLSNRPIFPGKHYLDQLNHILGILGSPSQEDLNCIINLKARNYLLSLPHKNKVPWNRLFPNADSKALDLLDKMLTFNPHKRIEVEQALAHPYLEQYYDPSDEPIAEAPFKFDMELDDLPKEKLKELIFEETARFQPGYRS

[5] = biological target: T1, Mitogen-activated protein kinase; ERK1/ERK2 (Homo sapiens); assay: Activation of ERK1/2 signalling in human K562/ADR cells assessed as suppression of P-gp expression at 0.05 uM after 48 hrs by Western blot analysis relative to control; type: cell-based
K562/Adr [6] = assay: Induction of apoptosis in human K562/ADR cells assessed as nuclear fragmentation at 0.05 uM after 48 hrs by Hoechst 33342 staining based fluorescent microscopic analysis; type: functional, cell-based
K562/Adr [7] = assay: Effect on total ERK1/2 protein expression level in human K562/ADR cells at 0.05 uM after 48 hrs by Western blot analysis relative to control; type: ADME, cell-based
[8] = biological target: T1, Mitogen-activated protein kinase; ERK1/ERK2 (Homo sapiens); assay: Activation of ERK1/2 signalling in human K562/ADR cells assessed as suppression of CDK1 protein expression at 0.05 uM after 48 hrs by Western blot analysis relative to control; type: cell-based
[9] = biological target: T1, Mitogen-activated protein kinase; ERK1/ERK2 (Homo sapiens); assay: Induction of ERK1/2 phosphorylation in human K562/ADR cells at 0.05 uM after 48 hrs by Western blot analysis relative to control; type: cell-based
K562/Adr [10] = assay: Cell cycle arrest in human K562/ADR cells assessed as accumulation in S phase at 0.05 uM after 48 hrs by propidium iodide staining based flow cytometry; type: functional
[11] = biological target: T1, Mitogen-activated protein kinase; ERK1/ERK2 (Homo sapiens); assay: Activation of ERK1/2 signalling in human K562/ADR cells assessed as increase in cleaved caspase-3 expression at 0.05 uM after 48 hrs by Western blot analysis relative to control; type: cell-based
K562/Adr [12] = assay: Induction of apoptosis in human K562/ADR cells assessed as early apoptotic cells at 0.05 uM after 48 hrs by Annexin V-APC/7-AAD staining based flow cytometry (reference value: 1.99%); type: functional
[13] = biological target: T1, Mitogen-activated protein kinase; ERK1/ERK2 (Homo sapiens); assay: Activation of ERK1/2 signalling in human K562/ADR cells assessed as increase in cleaved caspase-9 expression at 0.05 uM after 48 hrs by Western blot analysis relative to control; type: cell-based
K562/Adr [14] = assay: Induction of apoptosis in human K562/ADR cells assessed as necrotic cells at 0.05 uM after 48 hrs by Annexin V-APC/7-AAD staining based flow cytometry (reference value: 2.47%); type: functional
K562/Adr [15] = assay: Induction of apoptosis in human K562/ADR cells assessed as chromatin condensation at 0.05 uM after 48 hrs by Hoechst 33342 staining based fluorescent microscopic analysis; type: functional, cell-based
K562/Adr [16] = assay: Induction of apoptosis in human K562/ADR cells assessed as late apoptotic cells at 0.05 uM after 48 hrs by Annexin V-APC/7-AAD staining based flow cytometry (reference value: 3.89%); type: functional
[17] = biological target: T1, Mitogen-activated protein kinase; ERK1/ERK2 (Homo sapiens); assay: Activation of ERK1/2 signalling in human K562/ADR cells assessed as increase in cleaved caspase-8 expression at 0.05 uM after 48 hrs by Western blot analysis relative to control; type: cell-based
K562/Adr [18] = assay: Induction of apoptosis in human K562/ADR cells assessed as live cells at 0.05 uM after 48 hrs by Annexin V-APC/7-AAD staining based flow cytometry (reference value: 91.65%); type: functional

| Compound | IC50 (K562/Adr [1]) | Ratio IC50 (K562 [2]) | IC50 (K562 [3]) | further results |
| --- | --- | --- | --- | --- |
| COc1cc([C@@H]2c3cc4c(cc3[C@H](OC(=O)c3ccc(Br)cn3)[C@H]3COC(=O)[C@H]23)OCO4)cc(OC)c1OC | 0.16 µM | 8.421 | 0.019 µM | – |
| COc1cc([C@@H]2c3cc4c(cc3[C@H](O)[C@H]3COC(=O)[C@H]23)OCO4)cc(OC)c1OC [PODOFILOX] | 0.025 µM | 4.166 | – | fold change (FC) [4]: 0.02; fold change (FC) [5]: 0.03; Activity (K562/Adr [6]): Active; fold change (FC) (K562/Adr [7]): 0.88; fold change (FC) [8]: 0.4; fold change (FC) [9]: 0.63; Activity (K562/Adr [10]): Active; fold change (FC) [11]: 0.76; Activity (K562/Adr [12]): 7.94%; fold change (FC) [13]: 0.74; Activity (K562/Adr [14]): 7.73%; Activity (K562/Adr [15]): Active; Activity (K562/Adr [16]): 43.5%; fold change (FC) [17]: 0.7; Activity (K562/Adr [18]): 40.83% |
| COc1cc([C@@H]2c3cc4c(cc3[C@H](OC(=O)c3cccnc3OC)[C@H]3COC(=O)[C@H]23)OCO4)cc(OC)c1OC | 0.145 µM | 3.085 | 0.047 µM | – |
| COc1cc([C@@H]2c3cc4c(cc3[C@H](OC(=O)c3ccncc3)[C@H]3COC(=O)[C@H]23)OCO4)cc(OC)c1OC [4-O-PODOPHYLLOTOXINYL-ISONICOTINATE] | 0.048 µM | 4.363 | 0.011 µM | – |
| COc1cccc2c1C(=O)c1c(O)c3c(c(O)c1C2=O)C[C@@](O)(C(=O)CO)C[C@@H]3O[C@H]1C[C@H](N)[C@H](O)[C@H](C)O1 [DOXORUBICIN HYDROCHLORIDE] | 18.8 µM | – | 0.22 µM | – |
| COc1cc([C@@H]2c3cc4c(cc3[C@H](OC(=O)c3ccc(Br)nc3)[C@H]3COC(=O)[C@H]23)OCO4)cc(OC)c1OC | 0.345 µM | 1.347 | 0.256 µM | – |
